From EP4640213A1, “ORAL PHARMACEUTICAL PREPARATION COMPRISING SODIUM-GLUCOSE COTRANSPORTER-2 INHIBITOR AND ANGIOTENSIN II RECEPTOR BLOCKER” (THPharm Corp., priority 2022, dated 2024) come the findings set out here.

One data set relates to A549 cells. The data set can be described thus: Cell survival rate (MTT) in A549 cells. The class given is cell-based. Conditions: up to a concentration of 25 µM, 24 and 48 hours, FIGS. 1A, 1B. On the procedure: (§1) To screen angiotensin II receptor blockers for use in combinations of angiotensin II receptor blockers (ARBs) and sodium-glucose cotransporter-2 (SGLT-2) inhibitors for the treatment of heart failure, cell survival rates were evaluated.
(§2) Specifically, A549 cells were obtained from the Korean Cell Line Bank (KCLB) and subcultured using a RPMI-1640 medium supplemented with 10% fetal bovine serum (FBS) and 1% Penicillin, and MDCK cells were obtained from ATCC and subcultured using a DMEM medium supplemented with 10% FBS. 200 µl each of the A549 cells and MDCK cells incubated in an incubator under 37°C and 5% CO2 conditions were dispensed at 2 × 10^4 cells/well in a 96-well plate, and then a control group was treated with 100 µl of the medium, and experimental groups were treated with 1.25, 25, 50, and 100 µM of Telmisartan or olmesartan, respectively. After 24 and 48 hours, all of the wells were treated with 50 µl each of a 2 mg/ml MTT reagent and incubated in an incubator for 3 hours, and then each well was added with […] of DMSO, wrapped in foil, stirred for 30 minutes at room temperature, and the absorbance was measured at 570 nm to obtain the cell survival rate.

For another data set, the system named is MDCK cells. Kind of data set: Cell survival rate (MTT) in MDCK cells. The class given is cell-based. The note with it: up to a concentration of 25 µM, 24 and 48 hours, FIGS. 2A, 2B. The procedure:
as §1, §2

The subject of data set [1] is angiotensin converting enzyme (ACE). The data set can be described thus: ACE ELISA assay (ACE protein expression) in LPS inflammation-induced H9c2 cells. The class given is cell-based, rat. Conditions: FIG. 3. For orientation: An ELISA detects its analyte on a solid surface through an enzyme-linked reagent.
Method: Specifically, H9c2 cells as a human cardiac cell line were obtained and used from the Korea Cell Line Bank (KCLB 40071, Korea) and incubated and prepared in a DMEM medium supplemented with 10% FBS and 1% antibiotic-antimycotic (10 units/ml penicillin, 100 µg/ml streptomycin, 0.25 µg/ml amphotericin) under 37°C and 5% CO2 conditions.
To perform the ELISA assay, 10,000 pg/ml, 5,000 pg/ml, 2,500 pg/ml, 1,250 pg/ml, 625 pg/ml, 312 pg/ml, and 156 pg/ml of Human ACE standard solutions and a standard dilution buffer were added by 0.1 ml to each well of an antibody-coated 96-well plate. […] Thereafter, each well was added with 90 µl of the prepared TMB solution, incubated for 20 to 25 minutes in a dark room at 37°C, and then treated with each 0.1 ml of the prepared TMB stop solution to stop an ACE ELISA reaction, and the OD absorbance at 450 nm was read in a microplate reader within 30 minutes, and the relative OD450 was derived using the following Equation. […]
Data set [2] shares this test system. Kind of data set: ACE mRNA expression (RT-PCR) in LPS inflammation-induced H9c2 cells. The class given is cell-based, rat. On the procedure: Specifically, H9c2 cells as a […] cardiac cell line were obtained and used from the Korea Cell Line Bank (KCLB 40071, Korea) and incubated and prepared in a DMEM medium supplemented with 10% FBS and 1% antibiotic-antimycotic (10 units/ml penicillin, 100 µg/ml streptomycin, 0.25 µg/ml amphotericin) under 37°C and 5% CO2 conditions.
To confirm the effect on ACE activity, the prepared H9c2 cells were treated with 2.5 µg/ml of Lipopolysaccharide (LPS), which was 2.5 times more than the amount used in conventional inflammation-related experiments, to induce inflammation, thereby setting the optimized conditions for confirming ACE expression. LPS inflammation-induced H9c2 cells were treated with 10, 25, and 50 µM Telmisartan or olmesartan, respectively, and the H9c2 cells were harvested for ELISA assay. The harvested cells were treated with 1 ml of an RIPA buffer and stirred at 4°C for 30 minutes to extract proteins. Thereafter, the proteins were centrifuged at 4°C and 10,000 rpm for 20 minutes, and the supernatant was transferred to a sterilized tube and stored at - 80°C for use in the ELISA assay.
Specifically, LPS inflammation-induced H9c2 cells in Experimental Example 1-2 were treated with 10 or 25 µM Telmisartan and 10 or 50 µM olmesartan, and then treated with 200 µl of chloroform together with 1 ml of TRIZol (Sigma, USA), gently mixed, and separated for 10 minutes, and then centrifuged at 4°C and 10,000 rpm for 10 minutes. After centrifugation, only the supernatant from the tube was taken and transferred to a new sterile tube, and the supernatant was treated with 500 µl of isopropanol to precipitate RNA. The precipitated RNA was centrifuged at 4°C, 10,000 rpm for 10 minutes, and then the supernatant except for the pellets in the tube was fully removed, and the RNA pellets were treated with 500 µl of 75% ethyl alcohol and thoroughly washed. The washed pellets were centrifuged at 4°C, 10,000 rpm for 5 minutes, and then the supernatant except the pellets was fully removed. The tube containing the pellets from which the supernatant had been cleanly removed was treated with diethyl pyrocarbonate (DEPC)-water and stored at - 80°C for use in an RT-PCR experiment.
RT-PCR was performed by synthesizing cDNA from mRNA using an RT-PCR kit containing DNA polymerase, buffer, dNTP, and tracking dye, and then using ACE primers in Table 1 under the conditions in Table 2 for 35 cycles. The PCR products were electrophoresed on a […] agarose gel, identified using a UV transilluminator, and expressed as normalized to GAPDH for quantitative comparison.
In order to confirm the effect of each combination or single substance on the mRNA expression of ACE, the experimental samples in Table 3 were treated to H9c2 cells induced with LPS inflammation in Experimental Example 1-2, respectively, and then the mRNA expression of ACE was evaluated in the same manner as in Experimental Example 1-3.

A short description of data set [3]: 4-week repeated oral administration toxicity. The class given is in vivo, Sprague-Dawley rats. Conditions: oral daily for 4 weeks. The procedure:
During the test, general symptom observation, blood test, and body weight measurement were performed, and after the observation period ended, the rats were euthanized and autopsied.

The conditions of data set [4]: in the presence of Dapagliflozin; 80 mg / 10 mg; 90% confidence interval 0.99 to 1.43.
The nature of data set [5]: Single oral administration pharmacokinetic test. Conditions: beagle dogs.
Method: The control and test drugs were administered orally once by a single tablet, and were crossed over (4 × 4 cross over) four times at one-week intervals. Fasting was performed from 5 to 6 pm the day before administration. The control and test drugs were administered into the tongue root, and then administered with approximately 15 ml of water, and feed was provided approximately 4 hours after administration. Blood was collected at 0 (blank), 0.25, 0.5, 0.75, 1, 1.5, 2, 3, 4, 5, 6, 8, 12, and 24 hours (14 times) after administration of the control and test drugs, and left by a 7-day drug-free period.

The structures appear in SMILES notation.

As to `CCCc1nc2c(C)cc(-c3nc4ccccc4n3C)cc2n1Cc1ccc(-c2ccccc2C(=O)O)cc1` [Telmisartan, 4'-[(1,4'-dimethyl-2'-propyl[2,6'-bi-1H-benzimidazol]-1'-yl)methyl][1,1'-biphenyl]-2-carboxylic acid], the cell survival rate entry in the data set with A549 cells and in the data set with MDCK cells was “no effect on cell survival rate” each time. Also, the “ACE expression inhibition effect” value is given as “the best” in data set [1] (25 µM treatment group) and “superior to that of olmesartan” in data set [1] (all treatment concentrations (10, 25, 50 µM)). Besides, the mRNA expression result in data set [2] (25 µM treatment group, FIG. 4) is given as “mostly inhibited”. The “mRNA expression inhibition effect” value in data set [2] (all treatment concentrations, FIG. 4) is “superior to that of olmesartan”. Besides, the “mRNA expression of ACE” value in data set [2] (alone administration, low-concentration groups of 2.5 µM to 10 µM, FIGS. 5 and 6) is reported as “did not decrease to a normal level”. The body weight measurement entry in data set [3] was “a tendency for inhibiting weight gain”. Moreover, the “Cmax of Telmisartan (T/R ratio)” value in data set [4] was “approximately 1.19 times”. Further, the “difference in AUCall between groups in the single administration group and the combined administration group” value in data set [5] stood at 1.0 times.
